Data set [1] relates to Rattus norvegicus. Kind of data set: Decrease in copper concentration in Wistar rat CSF at 5 mg/kg, iv after 1 hr relative to control. Type of data set: functional. The arrangement: scale not given: the % may be the effect or the level left.
The test system of data set [2] is Rattus norvegicus. Kind of data set: Distribution of copper per 100 ml of Wistar rat blood at 5 mg/kg, iv after 1 hr. Type of data set: ADME, organism-based. The arrangement: dose 5 mg/kg, route intravenous. To be noted: in vivo.

`Oc1c(I)cc(Cl)c2cccnc12` [CLIOQUINOL]: the Activity with Rattus norvegicus [1] came out at 70%. The Ct with Rattus norvegicus [2] worked out at 126 µg.
`c1cc(CN2CCCNCCNCCCNCC2)ccc1CN1CCCNCCNCCCNCC1` [PLERIXAFOR]: in the data set on Rattus norvegicus [1], the Activity was 70%. In addition, in the data set with Rattus norvegicus [2], the Ct turned out to be 142 µg.
`CC(C)(S)[C@@H](N)C(=O)O` [PENICILLAMINE] showed a Ct with Rattus norvegicus [2] of 135 µg.

For the origin of these results see ChEMBL document CHEMBL1147818, “1,1'-Xylyl bis-1,4,8,11-tetraaza cyclotetradecane: a new potential copper chelator agent for neuroprotection in Alzheimer's disease. Its comparative effects with clioquinol on rat brain copper distribution” (Bioorg Med Chem Lett, 2006).
